These results are taken from patent US20240246918A1, “COMPOUNDS AND COMPOSITIONS AS EIF4E INHIBITORS AND THE USES THEREOF” (Ribometrix, Inc., priority 2022, published 2024).

A word on the IC50: it is the concentration that inhibits the measured activity by half.

Assay [1] deals with cyclin D1 protein levels in COLO 205 cells. Nature of the assay: Cyclin D1 cellular inhibition assay (HTRF, 6 hours). It counts as cell-based. The conditions noted are these: Homo sapiens, COLO 205, 6 h, 6 hours of compound treatment, Cyclin D1 protein levels by HTRF, read-out: COLO 205 6 h Cyclin D1 TR-FRET IC50. As to the method: The effect of compound treatment on cyclin D1 protein levels in COLO 205 cells was assessed, as follows. Test compound plates were prepared with a Tecan D300e Digital Dispenser as 11-point concentration-response curves with a final DMSO concentration of 1%. COLO 205 (ATCC, CCL-222) colorectal tumor cells were seeded to assay-ready plates in RPMI-1640 medium supplemented with 10% FBS at 20,000 cells in a volume of 6 microliters per well. After 6 hours of compound treatment, cells were lysed and Cyclin D1 protein levels were assessed by an HTRF assay (PerkinElmer #64CYCD1ITPEG), according to the manufacturer's protocol. Time-resolved fluorescence was measured using a Clariostar Plus microplate reader (BMG Labtech) or equivalent. After normalization to the average of DMSO control and maximum inhibition control wells, concentration-response data were plotted and standard 4-parameter curve fitting (GraphPad Prism v9.4.1) was utilized to determine IC50 values.
For orientation: TR-FRET usually uses a lanthanide donor and a delayed reading to cut background.

Assay [2] has as its system COLO 205 colorectal tumor cells. Nature of the assay: Tumor cell viability inhibition assay (CellTiter-Glo 2.0, 72 hours). It counts as cell-based. Particulars: Homo sapiens, COLO 205, 72 h, COLO 205 cell viability. The gist of the method: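 IC50 derived by 4-parameter fitting after normalizing luminescence to DMSO and max-inhibition wells. Compounds tested as 11 concentrations in 4-fold steps on COLO 205 cells seeded at 1500 per well in RPMI-1640/10% FBS; ATP content measured with CellTiter-Glo 2.0 after 72 h.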

Assay [3] deals with T1, human eIF4E protein (Homo sapiens, UniProt P06730).
T1 construct: purchased Novus NBP-45314
Kind of assay: Biochemical competitive binding assay (TR-FRET competition, EDA-m7GDP-ATTO-647N probe). Particulars: read-out: hEIF4E TR-FRET IC50. The gist of the method: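 IC50 values come from 4-parameter fits of the normalized 665/620 nm TR-FRET ratio. Compound was first incubated 15 min with 4 nM recombinant His-eIF4E bound to 2.5 nM Eu-anti-His antibody, then 15 min with 5 nM m7GDP-ATTO-647N tracer, in pH 7.5 HEPES buffer with 100 mM KCl, Tween-20 and BSA.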

T1 sequence (P06730 whole entry): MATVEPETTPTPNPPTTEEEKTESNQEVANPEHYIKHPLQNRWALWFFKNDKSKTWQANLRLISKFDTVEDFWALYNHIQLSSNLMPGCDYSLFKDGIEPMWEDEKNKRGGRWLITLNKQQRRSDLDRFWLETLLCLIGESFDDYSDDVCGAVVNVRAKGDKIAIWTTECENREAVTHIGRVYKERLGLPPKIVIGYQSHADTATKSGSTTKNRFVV

On to `Cc1cc(-c2cc(Cl)ccc2OCCn2c(C)nc3c(c2=O)C[C@@H](N2CCC[C@@]4(C2)CC4(F)F)CC3)c2scc(C(=O)O)c2n1` (single isomer, unassigned) [Compound 141], for which the IC50 in assay [1] is below 5 µM; in assay [2], below 5 µM; in assay [3], below 0.1 µM.
On to `COc1cc(CN(C)C2CCc3nc(C)n(CCOc4ccc(Cl)cc4-c4cc(C)nc5c(C(=O)NS(C)(=O)=O)csc45)c(=O)c3C2)ccn1` (single isomer, unassigned) [Compound 216], for which the values for the IC50 in assay [1], in assay [2] and in assay [3] were below 5 µM, below 5 µM and below 0.1 µM, respectively.
On to `Cc1cc(-c2cc(Cl)ccc2OCCn2c(C)nc3c(c2=O)C[C@H](N(C)[C@H]2CC[C@](C)(O)CC2)CC3)c2scc(C(=O)NS(C)(=O)=O)c2n1` (single isomer, unassigned) [Compound 207], for which the concentration for half-maximal inhibition (IC50) in assay [1] was above 20 µM; in assay [2], above 20 µM; in assay [3] it was below 0.1 µM.
With `Cc1cc(-c2cc(Cl)ccc2OCCn2c(C)nc3c(c2=O)CC(N2CCc4ccncc4C2)CC3)c2scc(C(=O)O)c2n1` (stereo not drawn) [Compound 171], the IC50 is below 5 µM in assay [1], below 5 µM in assay [2] and below 0.1 µM in assay [3].
Turning to `Cc1cc(-c2cc(Cl)ccc2OCCn2c(C)nc3c(c2=O)C[C@H](N2C[C@@H]4CC(F)(F)[C@@H]4C2)CC3)c2scc(C(=O)O)c2n1` (single isomer, unassigned) [Compound 146], the IC50 was below 5 µM in assay [1], below 5 µM in assay [2] and below 0.1 µM in assay [3].
With `Cc1csc(CN(C)C2CCc3nc(C)n(CCOc4ccc(Cl)cc4-c4cc(C)nc5c(C(=O)O)csc45)c(=O)c3C2)n1` (stereo not drawn) [Compound 182], the IC50 in assay [1] was below 5 µM; in assay [2] it was below 5 µM; in assay [3], below 0.1 µM.
For the compound `Cc1cc(-c2cc(Cl)ccc2OCCn2c(C)nc3c(c2=O)CC(N(C)Cc2ccc(C(F)(F)F)cc2)CC3)c2scc(C(=O)O)c2n1` (stereo not drawn) [Compound 201, 7-(5-chloro-2-(2-(2-methyl-6-(methyl(4-(trifluoromethyl)benzyl)amino)-4-oxo-5,6,7,8-tetrahydroquinazolin-3(4H)-yl)ethoxy)phenyl)-5-methylthieno[3,2-b]pyridine-3-carboxylic acid], the values for the IC50 in assay [1], in assay [2] and in assay [3] were below 5 µM, below 5 µM and below 0.1 µM, respectively.
For the compound `Cc1cc(-c2cc(Cl)ccc2OCCn2c(C)nc3c(c2=O)C[C@@H](N2C[C@H]4CCC(F)(F)[C@H]4C2)CC3)c2scc(C(=O)O)c2n1` (single isomer, unassigned) [Compound 168], the IC50 in assay [1] was below 5 µM; in assay [2] it was below 5 µM; in assay [3], below 0.1 µM.
Consider `COc1cc(CN(C)C2CCc3nc(C)n(CCOc4ccc(Cl)cc4-c4cc(C)nc5c(C(=O)O)csc45)c(=O)c3C2)ccn1` (single isomer, unassigned) [Compound 217], for which the IC50 was below 5 µM in assay [1], below 5 µM in assay [2] and below 0.1 µM in assay [3].
Turning to `Cc1cc(-c2cc(Cl)ccc2OCCn2c(C)nc3c(c2=O)C[C@@H](N(C)[C@H]2CC[C@](C)(O)CC2)CC3)c2scc(C(=O)NS(C)(=O)=O)c2n1` (single isomer, unassigned) [Compound 206], the IC50 in assay [1] is above 20 µM; in assay [2], above 20 µM; in assay [3] it was below 0.1 µM.
As for `Cc1cc(-c2cc(Cl)ccc2OCCn2c(C)nc3c(c2=O)C[C@H](N(C)[C@H]2CC[C@@](C)(O)CC2)CC3)c2scc(C(=O)O)c2n1` (single isomer, unassigned) [Compound 224], the 50% inhibitory concentration (IC50) in assay [1] is above 20 µM; in assay [2], above 20 µM; in assay [3] it was below 0.1 µM.
Turning to `Cc1cc(-c2cc(Cl)ccc2OCCn2c(C)nc3c(c2=O)C[C@@H](N2C[C@@H]4CCC(F)(F)[C@@H]4C2)CC3)c2scc(C(=O)O)c2n1` (single isomer, unassigned) [Compound 169], the 50% inhibitory concentration (IC50) in assay [1] is below 5 µM; in assay [2], below 5 µM; in assay [3], below 0.1 µM.
